Measurements: publication PMC5493638, “Adiponectin is an endogenous anti-fibrotic mediator and therapeutic target” (Scientific Reports, 2017)
Residues, ends and D or L forms follow the SMILES beside them.

How the values were obtained:
[1] = tested on: 3D human skin equivalents populated with normal skin fibroblasts; experiment: 3D human skin equivalents, fibrotic responses (qPCR); type: cell-based; conditions: peptide 10 uM with TGF-β2 for 6 days
Method: Normal human skin fibroblasts (3 × 10^5cells) were mixed with rat tail Type I collagen (4 mg/ml, BD Biosciences, San Jose, CA) and seeded in 12-well plates, [60]. Epidermal keratinocytes (6 × 10^6 cells) were seeded on the collagen plugs. Forty-eight hours later, the 3D organotypic cultures were placed on metal grids (BD Biosciences) and maintained for 5 days at an air-medium interface. Peptides (10 uM) were then added in media with or without TGF-β, and incubations continued for a further six days. Experiments were harvested, and RNA was isolated for analysis.
(§1) RNA was isolated from skin samples using RNAeasy Fibrous Tissue Mini kit (Qiagen, Valencia, CA), or from fibroblast cultures, using the RNeasy Plus mini kit (Qiagen), and processed for qPCR as described. mRNA levels were normalized to the levels of 18 S RNA or GAPDH, and the relative amounts were calculated using the 2^−ΔΔCt method.

[2] = tested on: normal dermal fibroblasts; experiment: TGF-ß-induced fibrotic gene expression in skin fibroblasts (qPCR, Western blot); type: cell-based, human
From the text: (§2) Primary cultures of healthy adult and SSc skin fibroblasts, and neonatal fibroblasts, were established by explantation. The clinical features of the subjects are shown in Supplementary Table 5. Protocols for skin biopsies were approved by the Institutional Review Board at Northwestern University. Embryonic fibroblasts from AMP protein kinase (AMPK)^−/− mice and wild-type mice were a gift from Yu-Ying He (University of Chicago). When cultures reached confluence, serum-free media supplemented with 0.1% bovine serum albumin (BSA) were added prior to TGF-β2 (Peprotech, Rocky Hill, NJ) or/and ADP355 (10 μM)[37], and incubation continued for a further 24 h. Cytotoxicity was evaluated using LDH assays (Biovision).
as §1
At the end of the experiments, fibroblasts were harvested and whole cell lysates (100 μg) were subjected to Western-blot analysis[25] using antibodies for Type I collagen (Southern Biotech), α-SMA (Sigma), phospho-Smad2/3 (Cell-Signaling), phospho-FAK (pY397, Cell Signaling), total-FAK (Cell Signaling) or GAPDH (Zymed, San Francisco, CA). […]

[3] = tested on: phospho-AMP kinase (Thr172); experiment: AMPK phosphorylation in normal fibroblasts (immunofluorescence); type: cell-based, human; conditions: ADP355 60 min, confocal immunofluorescence
skin fibroblasts [4] = experiment: Cytotoxicity, LDH assay; type: cell-based, human; conditions: concentrations of ADP355 used for these experiments (10 μM)
From the text: as §2

[5] = Ex vivo stability in serum; type: in vitro ADME; conditions: 30 min incubation with serum, intact peptide, data not shown
phospho-Smad2/3 = experiment: Smad2/3 phosphorylation elicited by TGF-ß (Western); type: cell-based, human; conditions: fibroblasts treated with ADP355
Method: (§3) At the end of the experiments, fibroblasts were harvested and whole cell lysates (100 μg) were subjected to Western-blot analysis[25] using antibodies for Type I collagen (Southern Biotech), α-SMA (Sigma), phospho-Smad2/3 (Cell-Signaling), phospho-FAK (pY397, Cell Signaling), total-FAK (Cell Signaling) or GAPDH (Zymed, San Francisco, CA). Electrophoretic bands were detected using enhanced chemiluminescence reagents (Pierce Biotechnology, Rockford, IL), and band intensities were quantified with Image J software. Results were normalized with GAPDH levels in each sample.

C57BL6/J mice = experiment: Bleomycin-induced skin fibrosis in mice; type: in vivo, mouse
From the text: (§4) Bleomycin (BLM) or phosphate buffered saline (PBS) was given by daily subcutaneous (s.c.) injection for 14 consecutive days[55]. In some experiments, mice were given a single s.c. injection of adenovirus expressing constitutively-active TGF-ß1 (TGFß1^223/225 3x10^9 PFU/ml) or beta-galactosidase (5x10^9 PFU/ml)[56]. Peritoneal fibrosis was induced by i.p. injections of 0.1% chlorhexidine gluconate (CG; Wako Pure Chemical Industries, Osaka, Japan) dissolved in 15% ethanol/PBS given on alternate days for 21 days[35]. Synthetic peptides targeting AdipoR (ADP355 or ADP27)[37] or vehicle (PBS) at the indicated concentrations were administered by daily i.p. injection for 14 or 24 days. Each experimental group consisted of 4–8 mice, and experiments were repeated at least two times with consistent results. At the end of the experiments, mice were sacrificed and blood and tissue were collected for analysis.
Harvested skin or parietal peritoneal membrane samples were fixed in PFA, embedded in paraffin and 4 μm thick sections were stained with hematoxylin and eosin (H&E). Collagen deposition and organization were assessed using Masson’s Trichrome staining. Thickness of the dermis, dWAT or peritoneal membrane were determined at five randomly selected locations/slide using ImageJ software.
Collagen content of lesional skin was determined by measuring the hydroxyproline content in 6-mm punch biopsy samples (BioVision, Milpitas, CA) (16). Serum levels of adiponectin were determined by ELISA which measures all adiponectin isoforms (Millipore; #EZMADP-60K)[9].
as §1

AMPK-null MEFs = experiment: Anti-fibrotic activity in AMPK-null MEFs (qPCR); type: cell-based; conditions: mouse embryonic fibroblasts, ADP355 24 h
From the text: as §2, §1

p-FAK Y397 = experiment: FAK phosphorylation and focal adhesion complex assembly; type: cell-based, human; conditions: normal skin fibroblasts, pretreatment with ADP355
Method: (§5) Normal skin fibroblasts (10,000 cells/well) seeded in 8-well Lab-Tek II chamber glass slides (Nalge Nunc International, Naperville, IL) were incubated in media with indicated reagents. At the end of the experiments, cells were fixed, permeabilized, and incubated with primary antibodies to α-SMA (1:500, Sigma), phospho-FAK (pY397; 1:50, Abcam), vinculin (1:200, Abcam), Alexa Fluor 488 phalloidin (1:200, Invitrogen) or Type I collagen (1:100, Southern Biotech), followed by appropriate secondary antibodies conjugated to Alexa Fluor (Invitrogen), and evaluated under a Nikon C1Si confocal microscope.
as §3

[6] = Tolerability of chronic treatment in mice; type: in vivo, mouse; conditions: 1 mg/kg/d i.p. for up to 28 days
From the text: as §4

SSc skin fibroblasts = experiment: Constitutive fibrotic gene expression in SSc fibroblasts; type: cell-based, human; conditions: unstimulated SSc fibroblasts (n = 5), ADP355 24 h, αSMA and type I collagen immunofluorescence
Method: as §5, §2

skin fibroblasts [7] = experiment: In vitro competition binding with labeled peptides; parameters: species or system human; conditions: unlabeled ADP355 100 μg/ml 10 min, then ADP355-Dy675 5 μg/ml 30 min, confocal microscopy
Method: To evaluate in vitro peptide binding, skin fibroblasts seeded on coverslips were preincubated with unlabeled ADP355 (100 μg/ml) for 10 min, followed by labeled ADP355-Dy675 (5 μg/ml), or labeled control peptide (Api88 Dy675, gift from Daniel Knappe, Leipzig, Germany) for 30 min. Cells were fixed in 4% phosphate buffered paraformaldehyde (PFA) and visualized using a Nikon A1 confocal microscope. To evaluate in vivo biodistribution, C57BL6/J mice were injected i.p. with Dy675-coupled peptide (20 μg/mouse or […]) and 10 min later, dorsal skin was harvested and processed for immunofluorescence analysis.

[8] = tested on: [SBE]4-luc (canonical Smad pathway); experiment: [SBE]4-luc transient transfection reporter assay; type: cell-based, human; conditions: transiently transfected fibroblasts, ADP355 and TGF-β 24 h, luciferase
Method: Fibroblasts at early confluence were transfected with [SBE]4-luc plasmids or indicated reporter constructs using SuperFect Transfection (Qiagen)[61]. Cultures were incubated in serum-free media containing 0.1% BSA for 16 h, followed by ADP355 and TGF-β for a further 24 h[61]. Whole cell lysates were assayed for luciferase activities using the dual-luciferase reporter assay system (Promega, Madison, WI). In each experiment, Renilla luciferase pRL-TK (Promega) was cotransfected as control for transfection efficiency. Experiments were performed in triplicate and repeated at least twice with consistent results. For RNAi-mediated transcript silencing, fibroblasts were transfected with target-specific short interfering siRNA specific for AdipoR1/R2 (Dharmacon, Lafayette, CO) or scrambled control siRNA (10 nM, unless otherwise indicated). Twenty-four hours following transfection, fresh media containing TGF-β (2 ng/ml) or ADP355 (10 μM) were added to the cultures and incubation continued for a further 24 h.

[9] = tested on: AdipoR-positive cancer cell lines; conditions: cited from earlier work
From the text: (§6) An alternate potential strategy is to mimic adiponectin biological activity using small molecules.

[10] = cited from earlier work
From the text: as §6

AdipoR = conditions: screening of 66 overlapping 10-amino acid peptides of the globular domain of adiponectin; cited from earlier work
From the text: as §6

[11] = tested on: normal dermal fibroblasts; experiment: Scratch assay of fibroblast migration; type: cell-based, human; conditions: widths after 48 h
Method: Figure 4 ADP355 inhibits fibrotic responses in normal and SSc skin fibroblasts. (a–d). Confluent cultures of normal dermal fibroblasts were preincubated with ADP355, followed by TGF-β2 for 24 h. (a) Total RNA was subjected to real-time qPCR. Results are mean ± SD of triplicate determinations. *p < 0.05, **p < 0.01. (b) Western blot of whole cell lysates. Representative results. Fold change in Type I collagen (Cgn I) levels relative to control is shown at bottom. (c) Fibroblasts were transiently transfected with [SBE]4-luc reporter plasmids, and cell lysates were assayed for their luciferase activities. Results are mean ± SD of triplicate determinations. **p < 0.001 (d) Scratch assays were performed and the widths determined after 48 h. Results are mean ± SEM of triplicate determinations at three randomly selected sites. (e) 3D human skin equivalents populated with normal fibroblasts were incubated in media with ADP355 and TGF-β2 for 6 days. RNA was isolated for qPCR. Results are mean ± SD of triplicate determinations *p < 0.05, **p < 0.001. (f) SSc skin fibroblasts (n = 5) incubated with ADP355 for 24 h were immunostained with antibodies to αSMA (green) or type I collagen (Cgn1, red), or stained with DAPI (blue). Left panels, representative immunofluorescence photomicrographs (original magnification × 400). Right panels, immunofluorescence intensity. […]

[12] = tested on: AMP-activated protein kinase (AMPK); conditions: cited from earlier work
From the text: as §6

[13] = daily i.p. ADP355 initiated concurrently with BLM

CCC[C@H](NC(=O)[C@@H]1CCCN1C(=O)[C@@H](NC(=O)[C@H](N)CC(N)=O)[C@@H](C)CC)C(=O)N[C@@H](CC(C)C)C(=O)N[C@@H](Cc1ccc(O)cc1)C(=O)N[C@H](CO)C(=O)N[C@@H](Cc1ccccc1)C(=O)N[C@@H](C)C(=O)N[C@H](CO)C(N)=O [ADP355, H-DAsn-Ile-Pro-Nva-Leu-Tyr-DSer-Phe-Ala-DSer-NH2] (HELM PEPTIDE1{[dN].I.P.[Nva].L.Y.[dS].F.A.[dS].[am]}$$$$V2.0)
fibrotic responses in 3D human skin equivalents [1]: attenuated fibrotic responses
inhibitory effects on fibrotic gene expression ([2]; adult skin fibroblasts, data not shown): Comparable inhibitory effects
COL1A1, COL1A2, ASMA, and fibronectin (FN) gene expression induced by TGF-ß ([2]; neonatal skin fibroblasts, ADP355 10 μM preincubation then TGF-β2 24 h, qPCR and Western blot): potent abrogation
AMPK phosphorylation [3]: induced AMPK phosphorylation
cell viability (skin fibroblasts [4]): No effects on cell viability
ex vivo stability in serum [5]: excellent ex vivo stability, with detectable levels of intact peptide even after 30 min incubation with serum
Smad2/3 phosphorylation elicited by TGF-ß (phospho-Smad2/3): partially reduced
skin fibrosis, low dose (C57BL6/J mice; 0.2 mg/kg/d, multiple independent experiments): Significant attenuation
skin fibrosis, high dose (C57BL6/J mice; 1 mg/kg/d, multiple independent experiments): Significant attenuation
dermal thickness, peptide by itself (C57BL6/J mice; ADP355 alone, without BLM): no significant effect
BLM-induced collagen accumulation (C57BL6/J mice; [13]): significantly mitigated
BLM-induced dWAT attrition (C57BL6/J mice; [13]): significantly mitigated
BLM-induced increase in dermal thickness (C57BL6/J mice; daily i.p. ADP355 initiated concurrently with BLM (s.c. 14 d), continued for 21 d): significantly mitigated
BLM-induced fibrotic gene expression (C57BL6/J mice; daily i.p. ADP355 initiated concurrently with BLM, qPCR of lesional skin): significantly mitigated
established dermal fibrosis (C57BL6/J mice; treatment initiated at day 10 of BLM, data not shown): reversed established dermal fibrosis
anti-fibrotic activity in AMPK-null MEFs (AMPK-null MEFs): failed to exert anti-fibrotic activity
FAK activation and focal adhesion complex assembly augmented by TGF-ß (p-FAK Y397): substantially attenuated
tolerability of chronic treatment [6]: well tolerated, with no signs of toxicity
constitutive fibrotic gene expression (SSc skin fibroblasts): mitigated constitutive fibrotic gene expression
binding to fibroblasts (skin fibroblasts [7]): Specific binding
stimulation of [SBE]4-luc activity by TGF-ß [8]: abrogated
anti-tumor effects [9]: anti-tumor effects
hypoadiponectinemia and loss of subcutaneous adipose tissue induced by HIV protease inhibitors [10]: reverse
AdipoR agonist activity (AdipoR): potent AdipoR agonist
stimulation of fibroblast migration [11]: abrogated the stimulation of fibroblast migration

NC(=O)c1ncn([C@@H]2O[C@H](CO)[C@@H](O)[C@H]2O)c1N [AICAR]
effect on or relative to the anti-fibrotic activities of adiponectin [12]: mimicked

c1cc(-c2cnn3cc(-c4ccc(OCCN5CCCCC5)cc4)cnc23)ccn1 [Compound C]
effect on or relative to the anti-fibrotic activities of adiponectin [12]: blocked

H-LYYFAYHITV-NH2 [ADP27, H-Leu-Tyr-Tyr-Phe-Ala-Tyr-His-Ile-Thr-Val-NH2]
anti-fibrotic effects in mice compared with ADP355 (C57BL6/J mice; mice treated with ADP27, Supplementary Fig. 9a,b): Comparable anti-fibrotic effects

B1: adiponectin: 30 kDa secreted adipokine abundant in the circulation (protein, UniProt Q15848 19-244, looked up)
Adiponectin: ETTTQGPGVLLPLPKGACTGWMAGIPGHPGHNGAPGRDGRDGTPGEKGEKGDPGLIGPKGDIGETGVPGAEGPRGFPGIQGRKGEPGEGAYVYRSAFSVGLETYVTIPNMPIRFTKIFYNQQNHYDGSTGKFHCNIPGLYYFAYHITVYMKDVKVSLFKKDKAMLFTYDQYQENNVDQASGSVLLHLEVGDQVWLQVYGEGERNGLYADNDNDSTFTGFLLYHDTN
half-life [10]: relatively short half-life
solubility [10]: extreme insolubility
